Several values for one entry are separate records, joined by “and”; a condition that tells them apart may be missing. Identical values can stand only once.

In one experiment the target is CD31 (mouse) (UniProt Q08481). The experiment is described as follows: IF colocalization (JACoP) of VT680 phage with marker, CP mouse pancreas sections.
The target of another experiment is F4/80 (mouse) (UniProt Q61549). Described as above.
Experiment [1] addresses carboxypeptidase A1 (CPA1) (mouse) (UniProt Q7TPZ8). The description is as above.
Chain of UniProt Q7TPZ8 (Q7TPZ8 111-419): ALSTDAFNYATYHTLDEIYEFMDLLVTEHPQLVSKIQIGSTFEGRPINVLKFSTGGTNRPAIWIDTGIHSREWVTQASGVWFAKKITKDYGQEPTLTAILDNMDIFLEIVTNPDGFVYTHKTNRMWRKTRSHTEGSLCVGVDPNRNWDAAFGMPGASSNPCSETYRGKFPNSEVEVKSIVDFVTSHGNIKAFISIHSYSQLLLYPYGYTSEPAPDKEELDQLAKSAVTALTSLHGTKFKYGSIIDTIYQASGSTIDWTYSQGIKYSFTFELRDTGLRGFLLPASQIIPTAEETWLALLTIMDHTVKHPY
The target in experiment [2] is cytokeratin 7 (CK-7) (mouse) (UniProt Q9DCV7). The experiment is described as above.
Chain of UniProt Q9DCV7 (Q9DCV7 2-457): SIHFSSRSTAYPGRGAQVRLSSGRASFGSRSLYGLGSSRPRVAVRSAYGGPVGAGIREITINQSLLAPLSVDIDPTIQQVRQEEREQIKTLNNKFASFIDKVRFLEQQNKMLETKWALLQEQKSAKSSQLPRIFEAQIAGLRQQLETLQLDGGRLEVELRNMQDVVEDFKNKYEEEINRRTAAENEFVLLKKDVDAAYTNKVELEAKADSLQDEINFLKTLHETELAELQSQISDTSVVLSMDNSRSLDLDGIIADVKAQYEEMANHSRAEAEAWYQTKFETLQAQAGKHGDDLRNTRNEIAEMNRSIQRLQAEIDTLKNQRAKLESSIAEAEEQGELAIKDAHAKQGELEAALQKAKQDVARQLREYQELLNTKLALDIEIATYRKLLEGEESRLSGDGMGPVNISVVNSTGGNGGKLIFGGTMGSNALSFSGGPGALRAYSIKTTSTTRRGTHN
Experiment [3] relates to caerulein-induced CP mice (inflamed pancreas) versus healthy mice. Kind of experiment: In vivo validation of individual phage clones: ex vivo IVIS fluorescence of organs after co-injection of targeting phage (VT680) and wild type M13Ke phage (VT750). Details: species or system mouse (C57BL/6J). The settings on record: for CP-to-Healthy Ratio (fold change of specificity ratio): Pancreas; for specificity for CP over healthy pancreas: individual clones from Groups 2 and 3. As to the method:
C57BL/6 J mice (6-12 week-old, female) were used for the in vivo phage screening. For chronic pancreatitis, caerulein (Bachem, Torrance, California, United States of America) was dissolved in sterile saline and administrated to mice twice a day, 8 hours apart for 14 consecutive days, at a concentration of 250 μg/kg body weight via intraperitoneal injection (Halbrook et al., 2017), as shown in FIG. 1A. During the 14-day course, intraperitoneal injections of 100 μg/kg buprenorphine were given every 3 days to minimize the induced pain. For healthy controls, c57BL/6 J mice were injected intraperitoneally with an equal volume of sterile saline following the same schedule as in the chronic pancreatitis models. […] Picrosirius red (Polysciences, Inc., Warrington, Pennsylvania, United States of America) was used to visualize collagen in paraffin-embedded pancreas sections (FIG. 1B).
Specificity of phage clones. After PHASTpep analysis and candidate clone selections, 18 candidate clones were grouped (4-5 clones per group, 4 groups total) based on sequence similarity using GibbsCluster Server 2.0 (Andreatta et al., 2017). by the Technical University of Denmark (FIG. 2). […] For each group, the fluorescently labeled candidate and WT phage were mixed and co-injected in CP and healthy mice (n=5) Phage accumulation was determined by measuring the ex vivo fluorescent intensity of the pancreas at 20 hours post-injection using the Fluorescent Molecular Tomography (FMT, PerkinElmer, Waltham, Massachusetts, United States of America) using the excitation and emission wavelength at 675 nm/720 nm for VT680 and 745 nm/800 nm for VT750. To account for variations of fluorescent labeling efficiency, the raw readouts of VT680 and VT750 were normalized to the dye-per-phage ratio (see Table 3 below).
The specificity ratio was calculated as % ID/g of the normalized VT680 divided by the % ID/g of the normalized VT750 (see Equation (1)). Quantifications are included in Table 4.
A similar procedure was applied to determine the specificity of individual phage clones in Groups 2 and 3. Candidate clones were labeled with VivioTag 680 (VT680, PerkinElmer, Waltham, MA) to match the detectable wavelength of the IVIS Spectrum Series (Perkin Elmer, Waltham, Massachusetts, United States of America). Fluorescent intensity was measured at 20 hours post-injection of candidate phage (VT680) and WT phage (VT750). Fold change of specificity ratio was calculated as the specificity ratio of CP mice divided by the specificity ratio of the healthy mouse (see Table 5).

The test system of the next experiment is CD31 (endothelium). The experiment is described as follows: Immunofluorescence colocalization (MCC) of VT680-labeled phage with cell marker in CP pancreas. The class given is in vivo, mouse. The settings on record: CP pancreas sections. The source says:
(§1) Immunofluorescence (IF). Post ex vivo imaging, mouse pancreata were submerged in Neg-50 Frozen Section Medium (Thermo Scientific, Waltham, Massachusetts, United States of America) and snap-frozen over liquid nitrogen vapor. The embedded tissues were cut into 5 μm sections using a cryostat (Leica Microsystems Inc., Buffalo Grove, Illinois, United States of America) for subsequent imaging with ZEISS LSM-880 Confocal Laser Scanning Microscope (Carl Zeiss Meditec, Inc., Jena, Germany) at the Advanced Microscopy Facility at the University of Virginia. Cell types of interest in the pancreatitis microenvironment were identified by immunohistochemistry using the following antibodies: rat anti-mouse CD31 at 1:200 dilution (endothelial markers; BD Biosciences, San Jose, California, United States of America), rat anti-mouse CD206 at 1:1000 dilution (M2 macrophage markers; Bio-Rad, Hercules, California, United States of America), rabbit anti-mouse cytokeratin 7 at 1:3000 dilution (CK-7, epithelial markers; Abcam, Cambridge, Massachusetts, United States of America), rabbit anti-mouse collagen IIIa at 1:200 dilution (ECM markers; Abcam, Cambridge, Massachusetts, United States of America), goat anti-mouse carboxypeptidase A1 at 1:200 dilution (CPA1, acini markers; R&D Systems, Inc., Minneapolis, Minnesota, United States of America), rat anti-mouse F4/80 at 1:500 (macrophage markers; Bio-Rad, Hercules, California, United States of America), and FITC-conjugated, mouse anti-mouse α-SMA at 1:200 dilution (MilliporeSigma, St. Louis, Missouri, United States of America). ALEXA FLUOR® 488 (Abcam, Cambridge, Massachusetts, United States of America) antibodies from appropriate species, including donkey anti-goat, donkey anti-rat, donkey anti-rabbit at 1:500 dilution, were used as secondary antibodies to locate the primary antibodies. IF-stained pancreatic sections were mounted with PROLONG™ Gold Antifade Mountant with DAPI (Thermo Fisher Scientific Inc, Waltham, Massachusetts, United States of America, United States of America) for nucleus visualization. IF images were taken on Ziess LSM 880 Confocal Microscope (ZIESS, Oberkochen, Germany) at the Advanced Microscopy Facility at the University of Virginia.
(§2) To identify the cell types that the CP targeting clones were binding, immunofluorescent analysis was performed on common cellular components in the CP microenvironment in the inflamed pancreas sections following in vivo validation of individual clones (FIG. 7). Mander's correlation coefficient (MCC) analysis was performed to determine colocalization of the targeting phage to the cell markers.

Another experiment relates to CK7 (epithelium). Described as above. The settings on record: CP pancreas sections. The class given is in vivo, mouse.
Excerpt: as §1, §2

The subject of experiment [4] is CPA-1+ cells (acinar cells). The description is as above. The class given is in vivo, mouse. The settings on record: CP pancreas sections.
Excerpt: as §1, §2

The test system of experiment [5] is F4/80+ cells (macrophages). Described as above. The experiment is classed as in vivo, mouse. The settings on record: CP pancreas sections.
Excerpt: as §1, §2

Experiment [6] has as its system collagen IIIa+ cells (ECM). Described as above. The experiment is classed as in vivo, mouse. The settings on record: Col IIIa; CP pancreas sections.
Excerpt: as §1, §2

The test system of experiment [7] is αSMA+ cells (activated PSC). Described as above. The settings on record: CP pancreas sections. The class given is in vivo, mouse.
Excerpt: as §1, §2

Experiment [8] relates to cellular components in the CP microenvironment. Kind of experiment: Cellular selectivity of phage clones: one-way ANOVA and Tukey-Kramer comparison of MCC of all cell markers. The settings on record: for Cell type the phage clone shows specificity to / Marker the phage clone shows specificity to: CP microenvironment; for Colocalized Markers (p < 0.05) / Corresponding Cellular Components: statistically significant selectivity for a single cellular component in CP. The experiment is classed as in vivo, mouse.
Excerpt: as §1
Statistical analysis. Statistical analysis of the data was performed by student t-test, one-way analysis of variance (ANOVA), and Tukey-Kramer test. All data presented are expressed as mean+standard error of at least three independent measurements. For all comparisons, p-values<0.05 were considered significant.
as §2

Chain of UniProt Q08481 (Q08481 18-727): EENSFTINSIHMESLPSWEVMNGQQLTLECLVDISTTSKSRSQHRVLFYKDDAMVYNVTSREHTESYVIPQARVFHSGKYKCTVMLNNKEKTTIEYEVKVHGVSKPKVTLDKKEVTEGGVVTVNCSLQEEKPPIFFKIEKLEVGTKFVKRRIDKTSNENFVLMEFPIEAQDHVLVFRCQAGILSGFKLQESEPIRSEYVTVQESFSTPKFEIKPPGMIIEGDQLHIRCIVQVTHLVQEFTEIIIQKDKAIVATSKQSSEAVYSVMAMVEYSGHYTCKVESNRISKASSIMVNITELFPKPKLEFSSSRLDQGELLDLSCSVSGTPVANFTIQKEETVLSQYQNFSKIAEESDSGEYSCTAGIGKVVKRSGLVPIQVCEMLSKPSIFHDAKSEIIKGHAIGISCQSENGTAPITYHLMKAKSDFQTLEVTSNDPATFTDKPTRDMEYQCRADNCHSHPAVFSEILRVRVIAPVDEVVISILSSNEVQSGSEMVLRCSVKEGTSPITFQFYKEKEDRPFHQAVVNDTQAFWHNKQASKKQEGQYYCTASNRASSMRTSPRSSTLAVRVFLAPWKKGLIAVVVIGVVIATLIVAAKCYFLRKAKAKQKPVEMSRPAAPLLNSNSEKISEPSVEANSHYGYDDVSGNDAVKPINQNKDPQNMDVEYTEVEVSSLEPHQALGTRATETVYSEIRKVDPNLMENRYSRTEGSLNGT
Chain of UniProt Q61549 (Q61549 28-931): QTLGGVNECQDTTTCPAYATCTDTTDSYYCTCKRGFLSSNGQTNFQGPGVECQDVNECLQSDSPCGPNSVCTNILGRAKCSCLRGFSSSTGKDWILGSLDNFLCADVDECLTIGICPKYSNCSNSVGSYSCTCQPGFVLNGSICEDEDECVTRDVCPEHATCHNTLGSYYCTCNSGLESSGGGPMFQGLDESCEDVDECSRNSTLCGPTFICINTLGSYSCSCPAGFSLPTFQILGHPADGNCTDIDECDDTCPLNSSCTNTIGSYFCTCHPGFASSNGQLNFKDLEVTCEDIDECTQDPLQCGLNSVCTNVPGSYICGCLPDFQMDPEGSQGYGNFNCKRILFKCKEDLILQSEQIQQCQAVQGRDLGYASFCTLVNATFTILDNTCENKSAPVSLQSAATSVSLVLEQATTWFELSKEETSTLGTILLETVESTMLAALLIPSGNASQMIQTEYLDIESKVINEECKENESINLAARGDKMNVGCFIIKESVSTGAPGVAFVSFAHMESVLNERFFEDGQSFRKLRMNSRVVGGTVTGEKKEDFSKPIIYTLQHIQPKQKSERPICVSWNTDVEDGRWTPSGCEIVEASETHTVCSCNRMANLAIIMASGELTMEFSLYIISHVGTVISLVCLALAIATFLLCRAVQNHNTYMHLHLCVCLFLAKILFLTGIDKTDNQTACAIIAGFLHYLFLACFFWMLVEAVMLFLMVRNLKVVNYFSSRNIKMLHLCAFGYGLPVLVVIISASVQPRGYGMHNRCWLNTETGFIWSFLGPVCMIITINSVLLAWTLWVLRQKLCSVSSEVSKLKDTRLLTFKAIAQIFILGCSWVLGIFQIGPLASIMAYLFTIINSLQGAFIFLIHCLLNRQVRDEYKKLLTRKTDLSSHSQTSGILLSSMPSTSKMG

Take “MDLSLKP (SEQ ID NO: 19) phage clone (peptide)”: the mean Manders' correlation coefficient (MCC), fraction of phage overlapping cell marker came to 0.2 with CD31 (mouse), 0.46 with F4/80 (mouse), 0.31 in [1] and 0.06 in experiment [2].

As for MDLSLKP (displayed on phage), the “Radiant efficiency Targeting:M13Ke” value in experiment [3] (CP mouse, liver) was 0.72; in experiment [3] (CP mouse, pancreas), 10.85; in experiment [3] (CP mouse, spleen) it was 2.70; in experiment [3] (healthy mouse, liver), 0.52; in experiment [3] (healthy mouse, pancreas), 5.79; in [3] (healthy mouse, spleen), 2.34. Also, the “CP-to-Healthy Ratio” value in [3] (Liver) was 1.370; in experiment [3] (Spleen) it was 1.156. Moreover, in experiment [3], the “CP-to-Healthy Ratio (fold change of specificity ratio)” value is 1.875. In addition, the “specificity for CP over healthy pancreas” value in experiment [3] is “increased specificity for CP over healthy pancreas”. Further, the “Mean Manders' Correlation Coefficient (MCC), fraction of phage overlapping cell marker” value in the experiment with CD31 (endothelium) is 0.20; with CK7 (epithelium), 0.06; in experiment [4], 0.31; in experiment [5] it was 0.46; in experiment [6], 0.828±0.089 and 0.83; in experiment [7] it was 0.16. Besides, the “Cell type the phage clone shows specificity to” value in experiment [8] was “ECM”. The “Marker the phage clone shows specificity to” value in experiment [8] is recorded as “Collagen”. The “Colocalized Markers (p < 0.05)” value in experiment [8] is given as “Collagen”. Moreover, the “Corresponding Cellular Components” value in experiment [8] is “ECM”.

MNSIAIP (displayed on phage): the “Radiant efficiency Targeting:M13Ke” value amounted to 0.61 in experiment [3] (CP mouse, liver); 9.81 in experiment [3] (CP mouse, pancreas); 3.61 in experiment [3] (CP mouse, spleen); 0.53 in experiment [3] (healthy mouse, liver); 5.04 in [3] (healthy mouse, pancreas); 4.36 in experiment [3] (healthy mouse, spleen). Besides, the “CP-to-Healthy Ratio” value worked out at 1.144 in experiment [3] (Liver) and 0.829 in [3] (Spleen). For the same substance, in experiment [3], the “CP-to-Healthy Ratio (fold change of specificity ratio)” value is reported as 1.945. The “specificity for CP over healthy pancreas” value in experiment [3] is “increased specificity for CP over healthy pancreas”. Further, the “Mean Manders' Correlation Coefficient (MCC), fraction of phage overlapping cell marker” value with CD31 (endothelium) was 0.24; with CK7 (epithelium), 0.05; in experiment [4], 0.633±0.179 and 0.63; in [5], 0.37; in experiment [6], 0.34; in experiment [7], 0.07. In addition, the “Cell type the phage clone shows specificity to” value in experiment [8] is “Acinar cells”. In addition, the “Marker the phage clone shows specificity to” value in [8] is recorded as “CPA1^+”. Also, in [8], the “Colocalized Markers (p < 0.05)” value was “CPA-1”. In experiment [8], the “Corresponding Cellular Components” value is “Acinar cells”.

For SLTNSSF (displayed on phage), the “Radiant efficiency Targeting:M13Ke” value in experiment [3] (CP mouse, liver) turned out to be 1.33; in [3] (CP mouse, pancreas), 8.86; in experiment [3] (CP mouse, spleen) it was 2.65; in experiment [3] (healthy mouse, liver), 1.06; in experiment [3] (healthy mouse, pancreas) it was 1.62; in [3] (healthy mouse, spleen), 2.69. Also, the “CP-to-Healthy Ratio” value worked out at 1.248 in [3] (Liver) and 0.985 in experiment [3] (Spleen). Moreover, the “CP-to-Healthy Ratio (fold change of specificity ratio)” value in experiment [3] is reported as 5.469. In addition, in [3], the “specificity for CP over healthy pancreas” value is listed as “increased specificity for CP over healthy pancreas”. Also, the “Mean Manders' Correlation Coefficient (MCC), fraction of phage overlapping cell marker” value was 0.13 in the experiment on CD31 (endothelium); 0.11 in the experiment on CK7 (epithelium); 0.22 in experiment [4]; 0.804±0.090 and 0.80 in [5]; 0.33 in [6]; 0.06 in [7]. In addition, the “Cell type the phage clone shows specificity to” value in experiment [8] is “Macrophage”. Moreover, the “Corresponding Cellular Components” value in experiment [8] is “Macrophage”.

Regarding SNSQDLH (displayed on phage), the “Radiant efficiency Targeting:M13Ke” value is reported as 0.73 in experiment [3] (CP mouse, liver); 6.22 in [3] (CP mouse, pancreas); 3.27 in experiment [3] (CP mouse, spleen); 0.51 in [3] (healthy mouse, liver); 2.07 in [3] (healthy mouse, pancreas); 3.11 in [3] (healthy mouse, spleen). The entries for the “CP-to-Healthy Ratio” value in experiment [3] (Liver) and in [3] (Spleen) were 1.428 and 0.165, respectively. The “CP-to-Healthy Ratio (fold change of specificity ratio)” value in experiment [3] was 3.009. Moreover, in [3], the “specificity for CP over healthy pancreas” value is recorded as “increased specificity for CP over healthy pancreas”. Further, the “Mean Manders' Correlation Coefficient (MCC), fraction of phage overlapping cell marker” value in the experiment on CD31 (endothelium) was 0.12; in the experiment with CK7 (epithelium) it was 0.14; in [4] it was 0.23; in experiment [5] it was 0.800±0.197 and 0.80; in [6] it was 0.33; in [7], 0.05. The “Cell type the phage clone shows specificity to” value in [8] was “Macrophage”. Besides, in [8], the “Corresponding Cellular Components” value is “Macrophage”.

(Values after US20240115729A1, “COMPOSITIONS AND METHODS FOR TARGETED ANTIFIBROTIC THERAPY IN CHRONIC PANCREATITIS” (University of Virginia Patent Foundation, priority 2021, published 2024).)
